# Laboratory results from US20230010886A1 (SUZHOU PUHE BIOPHARMA CO., LTD., priority 2019, published 2023).
# Molecular target: T1, Full length SHP2 enzyme (Homo sapiens, UniProt Q06124)
# T1 construct: Full length SHP2 enzyme (diluted to 0.1 nM in reaction buffer)
# T1 sequence (Q06124 1-593): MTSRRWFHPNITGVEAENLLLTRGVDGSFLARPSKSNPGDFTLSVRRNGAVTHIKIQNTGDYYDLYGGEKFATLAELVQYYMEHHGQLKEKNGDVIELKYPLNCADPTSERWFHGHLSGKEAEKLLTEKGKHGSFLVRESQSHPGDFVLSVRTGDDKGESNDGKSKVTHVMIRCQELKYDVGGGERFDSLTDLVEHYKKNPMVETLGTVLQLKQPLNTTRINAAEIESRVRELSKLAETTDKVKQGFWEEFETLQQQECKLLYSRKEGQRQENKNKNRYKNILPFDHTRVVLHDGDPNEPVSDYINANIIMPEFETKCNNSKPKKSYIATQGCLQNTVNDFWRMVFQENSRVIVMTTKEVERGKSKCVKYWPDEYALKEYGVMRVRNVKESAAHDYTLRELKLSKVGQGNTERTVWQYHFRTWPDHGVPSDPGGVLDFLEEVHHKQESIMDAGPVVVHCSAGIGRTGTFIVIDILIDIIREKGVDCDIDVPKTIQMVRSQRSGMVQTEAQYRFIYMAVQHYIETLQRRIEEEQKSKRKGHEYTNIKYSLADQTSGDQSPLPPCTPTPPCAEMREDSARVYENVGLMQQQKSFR
# Assay: SHP2 phosphatase assay
# Format: biochemical
# Details: 1 μM IRS-1 peptide, DiFMUP substrate
# Experimental: IC50 values were determined at room temperature in 384-well black polystyrene plate, using a final reaction volume of 15 μL and the following assay buffer conditions: 60 mM Hepes (pH=7.2), 75 mM NaCl, 75 mM KCl, and 1 mM EDTA, 0.05% P-20, 5 mM dithiothreitol (DTT). Full length SHP2 enzyme (diluted to 0.1 nM in reaction buffer) were co-incubated with 1 μM IRS-1 peptide and 0.01 nM to 10 μM compounds of the disclosure for 60 min. The surrogate substrate DiFMUP (5 μL, 100 μM) was added, and incubated at rt for 60 min. The reaction was then quenched by the addition of 5 μL of a 40 μM solution of bpV(Phen). The fluorescence signal was monitored using a microplate reader (Envision, Perkin-Elmer) using excitation and emission wavelengths of 360 nm and 450 nm, respectively. The inhibitor dose-response curves were analyzed using normalized IC50 regression curve fitting with control-based normalization.
row,IC50 [nM],SMILES
1,≤ 50,"NC1C2CC2CC12CCN(c1ncc(Sc3cccc(Cl)c3Cl)[nH]c1=O)CC2 (stereo not shown) [Example 13, 3-(2-aminospiro[bicyclo[3.1.0]hexane-3,4′-piperidin]-1′-yl)-6-((2,3-dichlorophenyl)thio)pyrazin-2 (1H)-one]"
2,≤ 50,"CN1C(=O)C(C(=O)Nc2cccc(Sc3cnc(N4CCC(C)(CN)CC4)c(=O)[nH]3)c2Cl)=C(O)C1(C)C [Example 28, N-(3-((5-(4-(aminomethyl)-4-methylpiperidin-1-yl)-6-oxo-1,6-dihydropyrazin-2-yl)thio)-2-chlorophenyl)-4-hydroxy-1,5,5-trimethyl-2-oxo-2,5-dihydro-1H-pyrrole-3-carboxamide]"
3,≤ 50,"CC1(CN)CCN(c2ncc(Sc3cccc(NC(=O)c4c(O)nc5cnccn5c4=O)c3Cl)[nH]c2=O)CC1 [Example 30, N-(3-((5-(4-(aminomethyl)-4-methylpiperidin-1-yl)-6-oxo-1,6-dihydropyrazin-2-yl)thio)-2-chlorophenyl)-2-hydroxy-4-oxo-4H-pyrazino[1,2-a]pyrimidine-3-carboxamide]"
4,≤ 50,"CC1(CN)CCN(c2ncc(Sc3cccc(NC(=O)c4c(O)nc5[nH]ccn5c4=O)c3Cl)[nH]c2=O)CC1 [Example 32, N-(3-((5-(4-(aminomethyl)-4-methylpiperidin-1-yl)-6-oxo-1,6-dihydropyrazin-2-yl)thio)-2-chlorophenyl)-7-hydroxy-5-oxo-1,5-dihydroimidazo[1,2-a]pyrimidine-6-carboxamide]"
5,≤ 50,"CC1(CN)CCN(c2ncc(Sc3cccc(NC(=O)c4c(O)nc5n(c4=O)CCCC5)c3Cl)[nH]c2=O)CC1 [Example 33, N-(3-((5-(4-(aminomethyl)-4-methylpiperidin-1-yl)-6-oxo-1,6-dihydropyrazin-2-yl)thio)-2-chlorophenyl)-2-hydroxy-4-oxo-6,7,8,9-tetrahydro-4H-pyrido [1,2-a]pyrimidine-3-carboxamide]"
6,≤ 50,"CC1(CN)CCN(c2nc3[nH]nc(Nc4cccc(Cl)c4Cl)c3c(=O)[nH]2)CC1 [Example 34, 6-(4-(aminomethyl)-4-methylpiperidin-1-yl)-3-((2,3-dichlorophenyl)amino)-1,5-dihydro-4H-pyrazolo[3,4-d]pyrimidin-4-one]"
7,≤ 50,"CC1(CN)CCN(c2nc3[nH]nc(Oc4cccc(Cl)c4Cl)c3c(=O)[nH]2)CC1 [Example 35, 6-(4-(aminomethyl)-4-methylpiperidin-1-yl)-3-(2,3-dichlorophenoxy)-1,5-dihydro-4H-pyrazolo[3,4-d]pyrimidin-4-one]"
8,≤ 50,"Cn1c(N2CCC(C)(CN)C2)nc(N)c(Sc2cccc(Cl)c2Cl)c1=O (stereo not shown) [Example 52, 6-amino-2-(3-(aminomethyl)-3-methylpyrrolidin-1-yl)-5-((2,3-dichlorophenyl)thio)-3-methylpyrimidin-4(3H)-one]"
9,≤ 50,"NC1CCCC(n2ccc(-c3cccc(Cl)c3Cl)cc2=O)C1 (stereo not shown) [Example 74, 1-(3-aminocyclohexyl)-4-(2,3-dichlorophenyl)pyridin-2(1H)-one]"
10,≤ 50,"C[C@@H]1OCC2(CCN(c3ncc(Sc4ccnc(N)c4Cl)nc3O)CC2)[C@@H]1N [Example 77, 6-((2-amino-3-chloropyridin-4-yl)thio)-3-((3S,4S)-4-amino-3-methyl-2-oxa-8-azaspiro[4.5]decan-8-yl)pyrazin-2(1H)-one]"
11,≤ 50,"COc1cccc(Sc2cnc(N3CCC4(CC3)CO[C@@H](C)[C@H]4N)c(=O)[nH]2)c1Cl [Example 79, 3-((3S,4S)-4-amino-3-methyl-2-oxa-8-azaspiro[4.5]decan-8-yl)-6-((2-chloro-3-methoxyphenyl)thio)pyrazin-2 (1H)-one]"
12,≤ 50,"COc1nccc(Sc2cnc(N3CCC4(CC3)CO[C@@H](C)[C@H]4N)c(=O)[nH]2)c1Cl [Example 80, 3-((3S,4S)-4-amino-3-methyl-2-oxa-8-azaspiro[4.5]decan-8-yl)-6-((3-chloro-2-methoxypyridin-4-yl)thio)pyrazin-2(1H)-one]"
13,≤ 50,"NC1C2CN(c3ncc(Sc4cccc(Cl)c4Cl)[nH]c3=O)CC12 (stereo not shown) [Example 86, 3-(6-amino-3-azabicyclo[3.1.0]hexan-3-yl)-6-((2,3-dichlorophenyl)thio)pyrazin-2(1H)-one]"
14,≤ 50,"N[C@@H]1c2ccccc2OC12CCN(c1ncc(Sc3cccc(Cl)c3Cl)[nH]c1=O)CC2 [Example 87, (R)-3-(3-amino-3H-spiro[benzofuran-2,4′-piperidin]-1′-yl)-6-((2,3-dichlorophenyl)thio)pyrazin-2 (1H)-one]"
15,≤ 50,"N[C@@H]1COCC12CCN(c1ncc(Sc3ccnc(Cl)c3Cl)[nH]c1=O)CC2 [Example 88, (S)-3-(4-amino-2-oxa-8-azaspiro[4.5]decan-8-yl)-6-((2,3-dichloropyridin-4-yl)thio)pyrazin-2(1H)-one]"
16,≤ 50,"C[C@@H]1OCC2(CCN(c3ncc(Sc4cc[nH]c(=O)c4Cl)[nH]c3=O)CC2)[C@@H]1N [Example 107, 3-((3S,4S)-4-amino-3-methyl-2-oxa-8-azaspiro[4.5]decan-8-yl)-6-((3-chloro-2-oxo-1,2-dihydro-pyridin-4-yl)thio)pyrazin-2(1H)-one]"
17,≤ 50,N[C@@H]1c2ccccc2CC12CCN(c1ncc(Sc3cccc(Cl)c3Cl)[nH]c1=O)CC2 [Example 108]
18,≤ 50,"NC1c2nc(Cl)sc2CC12CCN(c1ncc(Sc3ccnc(Cl)c3Cl)[nH]c1=O)CC2 (stereo not shown) [Example 116, 3-(4-amino-2-chloro-4,6-dihydrospiro[cyclopenta[d]thiazole-5,4′-piperidin]-1′-yl)-6-((2,3-dichloropyridin-4-yl)thio)pyrazin-2(1H)-one]"
19,≤ 50,"Nc1nccc(Sc2cnc(N3CCC4(CC3)Cc3sc(Cl)nc3C4N)c(=O)[nH]2)c1Cl (stereo not shown) [Example 117, 3-(4-amino-2-chloro-4,6-dihydrospiro[cyclopenta[d]thiazole-5,4′-piperidin]-1′-yl)-6-((2-amino-3-chloropyridin-4-yl)thio)pyrazin-2(1H)-one]"
20,≤ 50,"N[C@@H]1c2ccccc2OC12CCN(c1ncc(Sc3ccnc(Cl)c3Cl)[nH]c1=O)CC2 [Example 123, (R)-3-(3-amino-3H-spiro[benzofuran-2,4′-piperidin]-1′-yl)-6-((2,3-dichloropyridin-4-yl)thio)pyrazin-2(1H)-one]"
21,≤ 50,"Nc1nccc(Sc2cnc(N3CCC4(CC3)Oc3ccccc3[C@H]4N)c(=O)[nH]2)c1Cl [Example 124, (R)-6-((2-amino-3-chloropyridin-4-yl)thio)-3-(3-amino-3H-spiro[benzofuran-2,4′-piperidin]-1′-yl)pyrazin-2(1H)-one]"
22,≤ 50,"C[C@@H]1OCC2(CCN(c3ncc(Sc4cccc(N)c4F)[nH]c3=O)CC2)[C@@H]1N [Example 126, 6-((3-amino-2-fluorophenyl)thio)-3-((3S,4S)-4-amino-3-methyl-2-oxa-8-azaspiro[4.5]decan-8-yl)pyrazin-2(1H)-one]"
23,≤ 1000,"C[C@@H]1OCC2(CCN(c3ncc(Sc4ccnc(N)c4F)[nH]c3=O)CC2)[C@@H]1N [Example 127, 6-((2-amino-3-fluoropyridin-4-yl)thio)-3-((3S,4S)-4-amino-3-methyl-2-oxa-8-azaspiro[4.5]decan-8-yl)pyrazin-2(1H)-one]"
24,≤ 50,"C[C@@H]1OCC2(CCN(c3ncc(Sc4ccncc4Cl)[nH]c3=O)CC2)[C@@H]1N [Example 128, 3-((3S,4S)-4-amino-3-methyl-2-oxa-8-azaspiro[4.5]decan-8-yl)-6-((3-chloropyridin-4-yl)thio) pyrazin-2(1H)-one]"
25,≤ 50,"Nc1nccc(Sc2cnc(N3CCC4(CC3)Cc3scnc3C4N)c(=O)[nH]2)c1Cl (stereo not shown) [Example 130, 6-((2-amino-3-chloropyridin-4-yl)thio)-3-(4-amino-4,6-dihydrospiro[cyclopenta[d]thiazole-5,4′-piperidin]-1′-yl)pyrazin-2(1H)-one]"
26,≤ 50,"COc1ccc2c(c1)CC1(CCN(c3ncc(Sc4cccc(Cl)c4Cl)[nH]c3=O)CC1)[C@@H]2N [Example 131, (S)-3-(1-amino-5-methoxy-1,3-dihydrospiro[indene-2,4′-piperidin]-1′-yl)-6-((2,3-dichlorophenyl)thio)pyrazin-2 (1H)-one]"
27,≤ 50,"N[C@@H]1c2ccccc2NC12CCN(c1ncc(Sc3cccc(Cl)c3Cl)[nH]c1=O)CC2 [Example 132, (R)-3-(3-aminospiro[indoline-2,4′-piperidin]-1′-yl)-6-((2,3-dichlorophenyl)thio)pyrazin-2 (1H)-one]"
28,≤ 50,"Nc1nccc(Sc2cnc(N3CCC4(CCC[C@@H]4N)CC3)c(=O)[nH]2)c1Cl [Example 133, (S)-6-((2-amino-3-chloropyridin-4-yl)thio)-3-(1-amino-8-azaspiro[4.5]decan-8-yl)pyrazin-2(1H)-one]"
